Results as given in US20180296551A1, “METHODS AND COMPOSITIONS FOR TREATING NEURODEGENERATIVE DISEASES” (priority 2015, published 2018).

Assays:
[1] = test system: SOD1-G93A mice; details: SOD1-G93A transgenic mice; previously shown; cited from earlier work
[2] = test system: AP; experiment: AP by ELISA in 3×Tg-AD mice; type: in vivo; details: membrane fraction, 0.5 mg/kg AMD3100 (+0.17 mg/kg Zn+896 mg/kg lactate), vs PBS
Description: Experimental set-up: 9 month old 3×Tg-AD mice were treated with PBS or 0.5 mg/kg AMD3100 or 0.5 mg/kg AMD3100 0.17 mg/kg Zn or 0.5 mg/kg AMD3100+0.17 mg/kg Zn+896 mg/kg lactate once a week. All treatments were administered subcutaneously. After 3 month of treatment, all mice were subjected to Y maze test in order to evaluate their cognitive function. Each mouse was allowed to explore two arms of the Y maze for 5 min, rested for another 5 min, and then explored all 3 arms of the Y maze for another 5 min.

[3] = test system: SOD1-G93A mice; details: SOD1-G93A transgenic mice; previously shown; cited from earlier work; remark: listed apart in the source
[4] = test system: MCT1; details: female SOD1-G93A mice; 5 mg/kg AMD3100; spinal cord (FIG. 4A); vs control
Description: The control group is set to 100%. Results are mean ±S.E.M, T-test; *p<0.05.

[5] = test system: SOD1-G93A mice; experiment: Survival (time taken until death) of SOD1-G93A mice; type: in vivo
Description: Experimental set-up: 50 day old female SOD1-G93A mice were treated with either 5 mg/kg AMD3100 alone, 896 mg/kg Na-L-lactate alone or a combination of […] AMD3100 and 896 mg/kg Na-L-lactate twice a week, starting at 50 days old (for ALS), until death. All treatments were administered subcutaneously. The mice were weighed once a week following the various treatments and tested for motor function, also once a week. The time taken until death was recorded.
Experimental set-up: 50 day old female SOD1-G93A mice were treated with either 5 mg/kg AMD3100 alone or a complex of 0.25 mg/kg AMD3100+0.08 mg/kg Zinc or 0.125 mg/kg AMD3100+0.04 mg/kg Zinc twice a week, starting at 50 days old until death. All treatments were administered subcutaneously. The mice were weighed once a week following the various treatments and tested for motor function, also once a week. The time taken until death was recorded.
Experimental set-up: 50 day old male SOD1-G93A mice were treated with either 5 mg/kg AMD3100 alone or a complex of 0.5 mg/kg AMD3100+0.17 mg/kg Zinc+896 mg/kg lactate twice a week, starting at 50 days old, till death. All treatments were administered subcutaneously. The time taken until death was recorded.

[6] = test system: SOD1-G93A mice; details: SOD1-G93A transgenic mice; previously shown; cited from earlier work; remark: listed apart in the source

| SMILES | disease onset (in words) [1] | AP change by ELISA [2] | motor function (in words) [3] | MCT1 levels [4] | median survival ([5]; female SOD1-G93A mice, 5 mg/kg AMD3100 s.c. twice a week from 50 days old) [days] | median survival ([5]; male SOD1-G93A mice, 5 mg/kg AMD3100 s.c. twice a week from 50 days old) [days] | survival (in words) [6] | median survival ([5]; female SOD1-G93A mice, 896 mg/kg lactate s.c. twice a week from 50 days old) [days] |
| --- | --- | --- | --- | --- | --- | --- | --- | --- |
| c1cc(CN2CCCNCCNCCCNCC2)ccc1CN1CCCNCCNCCCNCC1 [AMD3100, 1,1′-[1,4-phenylenebis(methylene)]bis [1,4,8,11-tetraazacyclotetradecane]] | delayed | Reduction in AP was statistically significant | improved | increase | 144 | 140 | significantly increased |  |
| C[C@H](O)C(=O)[O-].[Na+] [lactate, Na-L-lactate] |  |  |  |  |  |  |  | 148 |
